Results: ChEMBL document CHEMBL1144623, “Sesterterpene sulfates as isocitrate lyase inhibitors from tropical sponge Hippospongia sp” (Bioorg Med Chem Lett, 2007)
pIC50: −log10 of the molar value.

Legend:
[1] = molecular target: Isocitrate lyase (Magnaporthe oryzae (strain 70-15 / FGSC 8958) (Rice blast fungus)(Pyricularia oryzae), UniProt P0CT06); test: Inhibition of Magnaporthe grisea Guy 11 isocitrate lyase; design: species or system Pyricularia grisea
[2] = system: Pyricularia grisea; test: Growth inhibition of Magnaporthe grisea Guy 11 in presence of sodium acetate after 6 days; type: functional; conditions: Guy 11, 144 h
[3] = system: Pyricularia grisea; test: Growth inhibition of Magnaporthe grisea Guy 11 in presence of glucose after 6 days; type: functional; conditions: Guy 11, 144 h
[4] = Inhibition of Magnaporthe grisea Guy 11 malate synthase; design: species or system Pyricularia grisea
[5] = system: Pyricularia grisea; test: Reduction of appressorium formation in wild type Magnaporthe grisea Guy 11 after 14 hrs; type: functional, organism-based

Sequence of Isocitrate lyase (P0CT06 whole entry): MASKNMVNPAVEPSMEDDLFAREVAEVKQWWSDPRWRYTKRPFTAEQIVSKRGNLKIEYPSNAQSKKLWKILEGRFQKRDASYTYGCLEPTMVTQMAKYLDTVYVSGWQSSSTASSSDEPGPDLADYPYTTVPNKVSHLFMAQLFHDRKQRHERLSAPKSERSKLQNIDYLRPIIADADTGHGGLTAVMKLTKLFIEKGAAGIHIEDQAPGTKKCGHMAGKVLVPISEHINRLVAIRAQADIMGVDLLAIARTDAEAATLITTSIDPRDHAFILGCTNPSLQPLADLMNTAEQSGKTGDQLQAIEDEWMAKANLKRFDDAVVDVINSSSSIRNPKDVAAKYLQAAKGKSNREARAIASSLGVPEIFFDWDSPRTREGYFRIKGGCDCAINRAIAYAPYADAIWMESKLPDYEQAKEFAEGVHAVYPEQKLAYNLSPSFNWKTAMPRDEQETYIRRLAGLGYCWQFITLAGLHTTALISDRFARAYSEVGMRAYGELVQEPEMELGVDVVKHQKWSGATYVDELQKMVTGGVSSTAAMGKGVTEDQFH

SMILES | pIC50 [1] | MIC [2] | MIC [3] | pIC50 [4] | Activity [5]
O=C(O)CC[N+](=O)[O-] | 4.03 | 2940 µM | > 3360 µM | 2.80 | 
CC1=CC[C@H]2C(C)(C)CCC[C@]2(C)[C@H]1C[C@@H](OS(=O)(=O)O)[C@H](C)CCC/C(C)=C/Cc1cc(O)ccc1O [HALISULFATE 1] | 4.90 | 87.7 µM | 701 µM | 3.64 | Dose-dependent effect
C=C1CCC[C@@H]2[C@@](C)(CCC(CCCc3ccoc3)COS(=O)(=O)O)[C@H](C)CC[C@]12C (some centres undefined) [HALISULFATE 5] | 4.17 | 107 µM | 853 µM | 2.94 | Dose-dependent effect
CC1=CC[C@H]2C(C)(C)CCC[C@]2(C)[C@H]1C[C@@H](O)[C@H](C)CCC/C(C)=C/Cc1cc(O)ccc1O [HYDROHALISULFATE 1] | 4.82 | 105 µM | 843 µM | 3.56 | Dose-dependent effect
